Results published in patent publication US20260035384A1, “COMPOUND CONTAINING CYCLOHEXYL” (CHIA TAI TIANQING PHARMACEUTICAL GROUP CO., LTD., priority 2022, published 2026).

Experiments:
AR in LNCaP cells = target: T1, AR in LNCaP cells (Homo sapiens, UniProt P10275, T878A); assay: Assay on degradation activity for AR in LNCaP cells (HTRF human androgen receptor detection kit); type: cell-based; details: 24 h incubation
T1 construct: Assay on Degradation Activity for AR in LNCaP Cells; endogenous in cells; host or cells: LNCaP cells
T1 sequence (P10275 1-920 T878A): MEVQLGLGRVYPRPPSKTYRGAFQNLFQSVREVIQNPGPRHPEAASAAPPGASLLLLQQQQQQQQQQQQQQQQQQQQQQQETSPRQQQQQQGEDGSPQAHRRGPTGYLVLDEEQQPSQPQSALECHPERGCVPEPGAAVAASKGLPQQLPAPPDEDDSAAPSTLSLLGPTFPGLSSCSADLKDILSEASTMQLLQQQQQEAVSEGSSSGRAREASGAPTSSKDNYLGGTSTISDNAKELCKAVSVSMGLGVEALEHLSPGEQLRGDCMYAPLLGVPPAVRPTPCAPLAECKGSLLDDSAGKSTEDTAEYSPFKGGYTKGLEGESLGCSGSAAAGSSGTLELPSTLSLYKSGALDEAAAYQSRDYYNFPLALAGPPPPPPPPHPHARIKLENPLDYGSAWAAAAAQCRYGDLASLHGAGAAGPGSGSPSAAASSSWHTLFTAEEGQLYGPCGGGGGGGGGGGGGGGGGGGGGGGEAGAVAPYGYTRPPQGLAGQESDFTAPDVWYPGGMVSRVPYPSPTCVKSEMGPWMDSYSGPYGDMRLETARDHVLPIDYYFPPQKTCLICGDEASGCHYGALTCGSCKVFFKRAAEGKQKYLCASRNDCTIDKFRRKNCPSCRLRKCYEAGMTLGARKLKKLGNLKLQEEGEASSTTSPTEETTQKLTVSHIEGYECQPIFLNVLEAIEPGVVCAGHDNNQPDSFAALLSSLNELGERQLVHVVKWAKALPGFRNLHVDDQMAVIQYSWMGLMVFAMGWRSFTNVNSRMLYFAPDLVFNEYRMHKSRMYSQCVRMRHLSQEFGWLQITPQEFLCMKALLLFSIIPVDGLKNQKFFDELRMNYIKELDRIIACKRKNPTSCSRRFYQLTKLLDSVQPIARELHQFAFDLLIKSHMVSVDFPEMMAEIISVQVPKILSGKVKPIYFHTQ
Outline: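 LNCaP cells seeded in 2% CSS-FBS phenol red-free 1640 medium overnight, then treated in duplicate with 500 nM–0.488 nM compound for 24 h. AR in lysates quantified by HTRF (Eu cryptate/d2 antibodies, 2 h, 25 °C, 665/620 nm); DC50 and Dmax from four-parameter fits.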

[1] = In vitro stability in liver microsome; type: in vitro ADME; details: human liver microsome 0.5 mg/mL, NADPH, 37° C.
LNCaP cells = assay: Assay on inhibitory activity for LNCaP cell proliferation (CCK-8); type: cell-based; details: Homo sapiens, 168 h incubation
Outline: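 Cells seeded at 1×10^5 cells/mL in phenol red-free 1640 with 2% CSS-FBS, treated at final 10000 nM-0.61 nM in duplicate. After 168 h incubation, viability read with CCK-8.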

VCaP cells = assay: Assay on inhibitory activity for VCaP cell proliferation (CCK-8); type: cell-based; details: Homo sapiens, 168 h incubation
Outline: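 VCaP cells seeded at 1×10^5 cells/mL in phenol red-free DMEM with 5% charcoal-stripped FBS, treated in duplicate at 10000–0.61 nM final. After 168 h incubation, viability was read with CCK-8.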

Structure (SMILES): N#Cc1ccc(O[C@H]2CC[C@H](NC(=O)c3ccc(C4CCN(C5CN(c6cc7onc(C8CCC(=O)NC8=O)c7c7ccccc67)C5)CC4)nn3)CC2)cc1Cl (some centres unmarked) [Compound 48]
- DC50 (AR in LNCaP cells; HTRF): ≤ 20 nM
- Dmax (AR in LNCaP cells; maximum degradation rate): > 80%
- Human liver microsome Residuals at 60 min (%) [1]: >85%
- IC50 (LNCaP cells): < 1000 nM
- IC50 (VCaP cells): < 100 nM
